Results on 15 molecules are retold here after patent US6492397B1, “N-arylheteroarylalkyl imidazol-2-one compounds for treatment of arteriosclerosis” (Pharmacia Corporation, priority 1991, dated 2002).

The term IC50 denotes the midpoint of a concentration-inhibition curve. A high value points to a need for much substance. The melting point is the temperature of the solid-liquid transition. One may read the inhibition in vivo as the relative decrease from the control value, in per cent.

Read-outs that look alike come from different tables or passages of the source. Some results are limits rather than exact numbers.

Series [1] deals with smooth muscle angiotensin II receptor. Description: Assay A: Angiotensin II Binding Activity (125I-angiotensin II displacement, rat uterine membrane preparation). Particulars: 50% displacement of specifically bound 125I-AII, rat uterine membranes, 25° C., 60 min. The method, then:
Assay A: Angiotensin II Binding Activity
Compounds of the invention were tested for ability to bind to the smooth muscle angiotensin II receptor using a rat uterine membrane preparation. […] Other chemicals were obtained from Sigma Chemical Co. This assay was carried out according to the method of Douglas et al [Endocrinology, 106, 120-124 (1980)]. Rat uterine membranes were prepared from fresh tissue. All procedures were carried out at 4° C. Uteri were stripped of fat and homogenized in phosphate-buffered saline at pH 7.4 containing 5 mM EDTA. The homogenate was centrifuged at 1500×g for 20 min., and the supernatant was recentrifuged at 100,000×g for 60 min. The pellet was resuspended in buffer consisting of 2 mM EDTA and 50 mM Tris-HCl (pH 7.5) to a final protein concentration of 4 mg/ml. Assay tubes were charged with 0.25 ml of a solution containing 5 mM MgCl2, 2 mM EDTA, 0.5% bovine serum albumin, 50 mM Tris-HCl, pH 7.5 and […] (approximately 10^5 cpm) in the absence or in the presence of unlabelled ligand. The reaction was initiated by the addition of membrane protein and the mixture was incubated at 25° C. for 60 min. The incubation was terminated with ice-cold 50 mM Tris-HCl (pH 7.5) and the mixture was filtered to separate membrane-bound labelled peptide from the free ligand. The incubation tube and filter were washed with ice-cold buffer. Filters were assayed for radioactivity in a Micromedic gamma counter. Nonspecific binding was defined as binding in the presence of 10 μM of unlabelled AII. Specific binding was calculated as total binding minus nonspecific binding. […] Binding data were analyzed by a nonlinear least-squares curve fitting program.

A further series deals with rabbit aortic rings. Description: Assay B: In Vitro Vascular Smooth Muscle Response for AII (antagonist activity in rabbit aortic rings). In kind it is cell-based. Particulars: Oryctolagus cuniculus, test antagonist at 10^-5 M, AII contraction, read-out: Assay B pA2 (converted). The method, then:
Assay B: In Vitro Vascular Smooth Muscle-Response for AII
The compounds of the invention were tested for antagonist activity in rabbit aortic rings. Male New Zealand white rabbits (2-2.5 kg) were sacrificed using an overdose of pentobarbital and exsanguinated via the carotid arteries. The thoracic aorta was removed, cleaned of adherent fat and connective tissue and then cut into 3-mm ring segments. The endothelium was removed from the rings by gently sliding a rolled-up piece of filter paper into the vessel lumen. The rings were then mounted in a water-jacketed tissue bath, maintained at 37° C., between moveable and fixed ends of a stainless steel wire with the moveable end attached to an FT03 Grass transducer coupled to a Model 7D Grass Polygraph for recording isometric force responses. The bath was filled with 20 ml of oxygenated (95% oxygen/5% carbon dioxide) Krebs solution of the following composition (mM): 130 NaCl, 15 NaHCO3, […], 1.2 NaH2PO4, 1.2 MgSO4, 2.5 CaCl2, and 11.4 glucose. The preparations were equilibrated for one hour before approximately one gram of passive tension was placed on the rings. Angiotensin II concentration-response curves were then recorded (3×10^−10 to 1×10^−5 M). Each concentration of AII was allowed to elicit its maximal contraction, and then AII was washed out repeatedly for 30 minutes before rechallenging with a higher concentration of AII. Aorta rings were exposed to the test antagonist at 10^−5 M for 5 minutes before challenging with AII. Adjacent segments of the same aorta ring were used for all concentration-response curves in the presence or absence of the test antagonist. The effectiveness of the test compound was expressed in terms of pA2 values and were calculated according to H. O. Schild [Br. J. Pharmacol. Chemother., 2,189-206 (1947)]. The PA2 value is the concentration of the antagonist which increases the EC50 value for AII by a factor of two. Each test antagonist was evaluated in aorta rings from two rabbits.

The subject of a further series is pressor response to AII. Description: Assay C: In Vivo Intragastric Pressor Assay Response for AII Antagonists. Also on record: species or system rat. To be noted: for Assay C Duration: Dose: 3 mg/kg (i.g.), Sprague-Dawley rats, AII challenges up to 180 minutes after gavage; for inhibition in vivo at 3 mg/kg: Rattus norvegicus, po. The method, then:
Assay C: In Vivo Intragastric Pressor Assay Response for AII Antagonists
Male Sprague-Dawley rats weighing 225-300 grams were anesthetized with methohexital (30 mg/kg, i.p.) and catheters were implanted into the femoral artery and vein. The catheters were tunneled subcutaneously to exit dorsally, posterior to the head and between the scapulae. The catheters were filled with heparin (1000 units/ml of saline). The rats were returned to their cage and allowed regular rat chow and water ad libitum. After full recovery from surgery (3-4 days), rats were placed in Lucite holders and the arterial line was connected to a pressure transducer. Arterial pressure was recorded on a Gould polygraph (mmHg). Angiotensin II was administered as a 30 ng/kg bolus via the venous catheter delivered in a 50 μl volume with a 0.2 ml saline flush. The pressor response in mm Hg was measured by the difference from pre-injection arterial pressure to the maximum pressure achieved. The AII injection was repeated every 10 minutes until three consecutive injections yielded responses within 4 mmHg of each other. These three responses were then averaged and represented the control response to AII. The test compound was suspended in 0.5% methylcellulose in water and was administered by gavage. The volume administered was 2 ml/kg body weight. The standard dose was 3 mg/kg. Angiotensin II bolus injections were given at 30, 45, 60, 75, 120, 150, and 180 minutes after gavage. The pressor response to AII was measured at each time point. The rats were then returned to their cage for future testing. A minimum of 3 days was allowed between tests. Percent inhibition was calculated for each time point following gavage by the following formula: [(Control Response−Response at time point)/Control Response]×100.

[2] abbreviates: first value of the pair (aorta rings from two rabbits).
Setting [3] is: second value of the pair (aorta rings from two rabbits).

As to `CCCCc1cn(CCCC)c(=O)n1Cc1ccc(-c2ccncc2-c2nnn[nH]2)cc1` [Example 42, 1,4-dibutyl-1,3-dihydro-3-[[4-[3-(1H-tetrazol-5-yl)-4-pyridinyl]phenyl]methyl]-2H-imidazol-2-one], the melting point was 176 to 178 °C (dec.). In series [1], the IC50 was 93 nM.

Turning to `CCCCc1cn(C)c(=O)n1Cc1ccc(-c2ccccc2-c2nnn[nH]2)nc1` [Example 10, 1-methyl-4-butyl-1,3-dihydro-3-[[6-[2-(1H-tetrazol-5-yl)phenyl]-3-pyridinyl]methyl]-2H-imidazol-2-one], the melting point is 184 to 185 °C (dec.). Also, in series [1], the IC50 was found to be 47 nM. In addition, the Kb in the series on rabbit aortic rings (setting [2]) is 22.9 nM. In the series on rabbit aortic rings (setting [3]), the Kb is 44.7 nM.

In the case of `CCCCc1cn(-c2c(F)cccc2F)c(=O)n1Cc1ccc(-c2ccccc2-c2nnn[nH]2)nc1` [Example 36, 1-(2,6-difluorophenyl)-4-butyl-1,3-dihydro-3-[[6-[2-(1H-tetrazol-5-yl)phenyl]-3-pyridinyl]methyl]-2H-imidazol-2-one], the melting point is 164.5 to 165.5 °C (dec.). This molecule showed an IC50 in series [1] of 7 nM. In the series with pressor response to AII, the “Assay C Duration” value turned out to be 120 min and 3 mg/kg produced 75% inhibition in vivo.

On to `CCCCc1cn(CCC)c(=O)n1Cc1ccc(-c2ccccc2-c2nnn[nH]2)nc1` [Example 12, 1-propyl-4-butyl-1,3-dihydro-3-[[6-[2-(1H-tetrazol-5-yl)phenyl]-3-pyridinyl]methyl]-2H-imidazol-2-one], for which the melting point was in the range of 164 to 165 °C. The IC50 in series [1] was found to be 31 nM. Also, the Kb with rabbit aortic rings (setting [2]) was 20.9 nM. Moreover, the Kb with rabbit aortic rings (setting [3]) is 5.5 nM.

`CCCCc1cn(CC)c(=O)n1Cc1ccc(-c2ccccc2-c2nnn[nH]2)nc1` [Example 11, 1-ethyl-4-butyl-1,3-dihydro-3-[[6-[2-(1H-tetrazol-5-yl)phenyl]-3-pyridinyl]methyl]-2H-imidazol-2-one]: the melting point is 205 °C (dec.). In addition, in series [1], the IC50 amounted to 34 nM. Further, in the series on rabbit aortic rings (setting [2]), the Kb is 3.63 nM. For the same molecule, in the series on rabbit aortic rings (setting [3]), the Kb was 9.33 nM.

The molecule `CCCCc1cn(CCCC)c(=O)n1Cc1ccc(-c2cnccc2-c2nnn[nH]2)cc1` [Example 41, 1,4-dibutyl-1,3-dihydro-3-[[4-[4-(1H-tetrazol-5-yl)-3-pyridinyl]phenyl]methyl]-2H-imidazol-2-one] yielded a melting point of 128 to 130 °C. Further, the IC50 in series [1] is 160 nM.

In the case of `CCCCc1cn(C(C)(C)C)c(=O)n1Cc1ccc(-c2ccccc2-c2nnn[nH]2)nc1` [Example 17, 1-tertbutyl-4-butyl-1,3-dihydro-3-[[6-[2-(1H-tetrazol-5-yl)phenyl]-3-pyridinyl]methyl]-2H-imidazol-2-one], the IC50 in series [1] turned out to be 17 nM. In the series on rabbit aortic rings (setting [2]), the Kb is 1.66 nM. In addition, the Kb in the series with rabbit aortic rings (setting [3]) was 2.34 nM. For the same molecule, in the series with pressor response to AII, the “Assay C Duration” value came out at 180 min and 3 mg/kg produced 10% inhibition in vivo.

In series [1], `CCCCn1cc(C2CCCCC2)n(Cc2ccc(-c3ccccc3-c3nnn[nH]3)nc2)c1=O` [Example 7, 1-butyl-4-cyclohexyl-1,3-dihydro-3-[[6-[2-(1H-tetrazol-5-yl)phenyl]-3-pyridinyl]methyl]-2H-imidazol-2-one] displayed an IC50 of 81 nM. Moreover, the results for the Kb with rabbit aortic rings (setting [2]) and in the series on rabbit aortic rings (setting [3]) were 17.8 nM and 17.4 nM, respectively. Moreover, the “Assay C Duration” value with pressor response to AII came out at 180 min. The inhibition in vivo at 3 mg/kg in the series on pressor response to AII is 10%.

With `CCCCc1cn(CCCC)c(=O)n1Cc1ccc(-c2cccnc2-c2nnn[nH]2)cc1` [Example 43, 1,4-dibutyl-1,3-dihydro-3-[[4-[2-(1H-tetrazol-5-yl)-3-pyridinyl]phenyl]methyl]-2H-imidazol-2-one], the melting point lay within 178 to 179.5 °C. The same molecule registered an IC50 in series [1] of 89 nM. In the series on rabbit aortic rings (setting [2]), the Kb is 28.2 nM. Moreover, in the series with rabbit aortic rings (setting [3]), the Kb was 21.4 nM.

Molecule `CCCCc1cn(CC(C)C)c(=O)n1Cc1ccc(-c2ccccc2-c2nnn[nH]2)nc1` [Example 13, 1-isobutyl-4-butyl-1,3-dihydro-3-[[6-[2-(1H-tetrazol-5-yl)phenyl]-3-pyridinyl]methyl]-2H-imidazol-2-one] registered a melting point of 160 to 161.5 °C. This molecule also displayed an IC50 in series [1] of 14 nM. The Kb in the series with rabbit aortic rings (setting [2]) was 9.33 nM. Moreover, the Kb in the series with rabbit aortic rings (setting [3]) is 2.51 nM.

Regarding `CCCCc1cn(-c2c(Cl)cccc2Cl)c(=O)n1Cc1ccc(-c2ccccc2-c2nnn[nH]2)nc1` [Example 37, 1-(2,6-dichlorophenyl)-4-butyl-1,3-dihydro-3-[[6-[2-(1H-tetrazol-5-yl)phenyl]-3-pyridinyl]methyl]-2H-imidazol-2-one], the melting point lay in the range of 212 to 212.5 °C. Moreover, in series [1], the half-inhibitory concentration (IC50) was found to be 4.8 nM. In the series on pressor response to AII, the “Assay C Duration” value is >180 min and testing at 3 mg/kg gave an inhibition in vivo of 25%.

`CCCCc1cn(CCC2=CCCC2)c(=O)n1Cc1ccc(-c2ccccc2-c2nnn[nH]2)nc1` [Example 28, 1-[2-(cyclopenten-1-yl)ethyl]-4-butyl-1,3-dihydro-3-[[6-[2-(1H-tetrazol-5-yl)phenyl]-3-pyridinyl]methyl]-2H-imidazol-2-one] registered a half-inhibitory concentration (IC50) in series [1] of 23 nM. Besides, in the series on rabbit aortic rings (setting [2]), the Kb was 1.41 nM. In addition, in the series on rabbit aortic rings (setting [3]), the Kb was 5.62 nM. Besides, in the series with pressor response to AII, the “Assay C Duration” value came out at 180 min and 3 mg/kg produced 15% inhibition in vivo.

The molecule `CCCCc1cn(C(C)C)c(=O)n1Cc1ccc(-c2ccccc2-c2nnn[nH]2)nc1` [Example 16, 1-isopropyl-4-butyl-1,3-dihydro-3-[[6-[2-(1H-tetrazol-5-yl)phenyl]-3-pyridinyl]methyl]-2H-imidazol-2-one] had an IC50 in series [1] of 20 nM. For the same molecule, the Kb in the series on rabbit aortic rings (setting [2]) is 3.8 nM. For the same molecule, the Kb in the series with rabbit aortic rings (setting [3]) is 1.7 nM. Moreover, in the series with pressor response to AII, the “Assay C Duration” value was >180 min and the inhibition in vivo at 3 mg/kg was determined as 45%.

`CCCCn1cc(C2CCCC2)n(Cc2ccc(-c3ccccc3-c3nnn[nH]3)nc2)c1=O` [Example 8, 1-butyl-4-cyclopentyl-1,3-dihydro-3-[[6-[2-(1H-tetrazol-5-yl)phenyl]-3-pyridinyl]methyl]-2H-imidazol-2-one]: the melting point is 195 to 196 °C (dec.). Further, the IC50 in series [1] was 140 nM.

`CCCCc1cn(CCCC)c(=O)n1Cc1ccc(-c2ncccc2-c2nnn[nH]2)cc1` [Example 40, 1,4-dibutyl-1,3-dihydro-3-[[4-[3-(1H-tetrazol-5-yl)-2-pyridinyl]phenyl]methyl]-2H-imidazol-2-one] yielded a melting point of 178 to 179.5 °C. Further, in series [1], the IC50 was determined as 91 nM.
